Data from US8133880B2, “Purine derivatives and methods of use thereof” (Inotek Pharmaceuticals Corporation, priority 2004, dated 2012).

Legend:
Assay type in all cases: in vivo
BALB/c mice [1] = experiment: LPS-induced chemokine and cytokine response (serum TNF-α, MIP-1α by ELISA); conditions: for Serum TNF-α mean / Serum MIP-1α mean: serum ninety minutes after LPS
Experimental: (§1) Male BALB/c mice were intraperitoneally administered Compound 54 (at a dose of either 0.3 mg/kg or 1.0 mg/kg) over a 30-minute period. Lipopolysaccharide (LPS) was then administered intraperitoneally at a dose of 1 mg/kg. Ninety minutes after LPS administration, serum was collected and the levels of MIP-1α and TNF-α were analyzed using specific ELISA.
as §1, with “34” for “54”, “0.03” for “either 0.3”, “0.1” for “1.0”, “30 minute” for “30-minute”

BALB/c mice [2] = experiment: Asthma-associated inflammation: OVA aerosol exposure and bronchioalveolar lavage
Experimental: Four-week old male, viral-antibody-free BALB/c mice (Jackson Laboratory, Bar Harbor, Me.) were intraperitoneally immunized with 10 μg ovalbumin (“OVA,” Grade III, Sigma Chemical Co., St. Louis, Mo.) and 1 mg alum (diluted from 2% Alhydrogel; Accurate Sci. Corp., Westbury, N.Y.) in 0.5 mL phosphate-buffered saline (“PBS”) on days 0 and 7. Control mice received 1 mg alum in PBS solution on days 0 and 7.
On day 14, both immunized mice and control mice received a single aerosol exposure to 3% OVA (in PBS) for 30 minutes, followed by intraperitoneal administration of Compound 34 (5 μg per mouse in 0.2 mL buffer solution). About 18 hours after treatment, the mice were sacrificed and bronchioalveolar lavage (“BAL”) was performed on their lungs. The fluid obtained from the mice via the BAL procedure was analyzed and the inflammatory cell counts and level of inflammatory mediators in the fluid samples was measured as described in Virag et al., Med. Sci. Monit. 10:BR77-83 (2004).
On day 14, both immunized mice and control mice received a single aerosol exposure to 3% OVA (in PBS) for 30 minutes, followed by intraperitoneal administration of Compound 24 (5 μg per mouse in 0.2 mL buffer solution). About 18 hours after treatment, the mice were sacrificed and bronchioalveolar lavage (“BAL”) was performed on their lungs. The fluid obtained from the mice via the BAL procedure was analyzed and the inflammatory cell counts and level of inflammatory mediators in the fluid samples was measured as described in Virag et al., Med. Sci. Monit. 10:BR77-83 (2004).

mice = experiment: TPA-induced dermatitis of the ear (ear weight, MPO); conditions: for Right ear (treated) Mean Weight: 10 μL topical, biopsy six hours after application, normal saline 20.2; for Right ear (treated) MPO: ear biopsy six hours after application, normal saline 18.4; for Difference (right minus left ear weight): normal saline 10.1; for Difference (MPO right minus left ear): normal saline 16.8; for Left ear (untreated) MPO / Left ear (untreated) Mean Weight: left ear DMSO vehicle only
Experimental: Dermatitis was induced in the right ear of unanesthetized mice via the topical application of 12-O-tetradecanoylphorbol-13-acetate (TPA) (10 μL, 1% in DMSO) on both the inner and outer surfaces of the right ear. The left ear of each mouse had only vehicle (DMSO, 10 μL) topically applied on both the inner and outer surfaces.
Immediately after application of TPA, the mice were topically treated on the inner and outer surfaces of their right ear only with either: (1) Compound 43 (10 μL, 0.1% in normal saline), (2) Compound 43 (10 μL, 0.3% in normal saline), or (3) normal saline (10 μL).
Six hours after the application of Compound 43 or normal saline, the animals were euthanized using CO2 asphyxiation and a ¼ inch biopsy of both the left and right ear was taken and weighed. The biopsy samples were then analyzed for myloperoxidase (MPO) activity as a marker of neutrophil infiltration using standard methods.

Swiss Webster mice = experiment: Dextran sodium sulfate-induced colitis; conditions: for visual score (1-4) of colon damage: 1 = no damage, 4 = extensive damage, vehicle 2; for Colon Length: twice daily by gavage, seven days with DSS, vehicle 3.97; for MDA / MPO: colon biopsy; for MDA: vehicle 8.7; for MPO: vehicle 209
Experimental: Colitis was induced in Swiss Webster mice by administration of dextran sodium sulfate (DSS) (5%, dissolved in distilled water, molecular weight 30-40 kDa) ad libitum for a total period of seven days. During this seven-day period, and concomitant with the administration of DSS, the mice were separately administered Compound 54 twice daily by gavage at a total daily dose of 0.1 mg/kg/day, 0.3 mg/kg/day or 1 mg/kg/day. At the end of the seventh day of administration of both DSS and Compound 54, the mice were euthanized and their colon was removed, measured, visually analyzed and colon biopsy samples were analyzed for malondialdehyde (MDA) and myeloperoxidase (MPO) levels.

[3] = 5 μg per mouse i.p., BAL fluid about 18 hours after treatment
[4] = animals given 0.1% on the right ear
[5] = animals given 0.3% on the right ear

CCNC(=O)[C@H]1O[C@@H](n2cnc3c(N)nc(N/N=C/C4CCC=CO4)nc32)[C@H](O)[C@@H]1O (mixture of isomers) [Compound 34]
Serum TNF-α mean (BALB/c mice [1]; 0.03 mg/kg i.p. before LPS 1 mg/kg i.p., LPS alone 1949): 814 pg/mL | Serum MIP-1α mean (BALB/c mice [1]; 0.03 mg/kg i.p. before LPS 1 mg/kg i.p., LPS alone 2544): 1182 pg/mL | LPS-induced increase in TNF-α and MIP-1α (BALB/c mice [1]; 0.03 mg/kg or 0.1 mg/kg i.p.): dose-dependently reduces | Serum TNF-α mean (BALB/c mice [1]; 0.1 mg/kg i.p. before LPS 1 mg/kg i.p., LPS alone 1949): 552 pg/mL | Serum MIP-1α mean (BALB/c mice [1]; 0.1 mg/kg i.p. before LPS 1 mg/kg i.p., LPS alone 2544): 981 pg/mL | inflammatory cell infiltration into the BAL fluid, reduction (BALB/c mice [2]; 5 μg per mouse i.p. after OVA aerosol, BAL about 18 hours after treatment, treated vs. control animals, p<0.01): 70±19% | MIP-1α levels, reduction relative to control (BALB/c mice [2]; [3]): 74% | TNF-α levels, reduction relative to control (BALB/c mice [2]; [3]): 30% | white blood cell counts, reduction relative to control (BALB/c mice [2]; [3]): 70% | MIP-1α (BALB/c mice [2]; BAL fluid, 5 μg per mouse i.p., untreated mice 58 ± 19): 15 ± 5 pg/mL | TNF-α (BALB/c mice [2]; BAL fluid, 5 μg per mouse i.p., untreated mice 81 ± 27): 56 ± 18 pg/mL

CCNC(=O)[C@H]1O[C@@H](n2cnc3c(N)nc(N/N=C/[C@H]4CCC=CO4)nc32)[C@H](O)[C@@H]1O [Compound 43]
MPO levels in the treated right ears (mice; 0.1% and 0.3% topical, compared to TPA and normal saline): decreased | elevated weight in the right ear caused by the TPA-induced dermatitis (mice; 0.1% and 0.3% topical, compared to animals receiving normal saline only): reduced in a dose-dependent fashion | Right ear (treated) Mean Weight (mice; 0.1% in normal saline): 17.7 mg | Right ear (treated) MPO (mice; 0.1% topical): 1.04 ug/sample | Difference (right minus left ear weight) (mice; 0.1% topical): 5.3 mg | Difference (MPO right minus left ear) (mice; 0.1% topical): 0.67 | Right ear (treated) Mean Weight (mice; 0.3% in normal saline): 13.6 mg | Right ear (treated) MPO (mice; 0.3% topical): 3.34 ug/sample | Difference (right minus left ear weight) (mice; 0.3% topical): 0.1 mg | Difference (MPO right minus left ear) (mice; 0.3% topical): 1.65 | Left ear (untreated) MPO (mice; [4]): 0.37 ug/sample | Left ear (untreated) Mean Weight (mice; [4]): 12.4 mg | Left ear (untreated) MPO (mice; [5]): 1.69 ug/sample | Left ear (untreated) Mean Weight (mice; [5]): 13.5 mg

CNC(=O)[C@H]1O[C@@H](n2cnc3c(NC)nc(C#N)nc32)[C@H](O)[C@@H]1O [Compound 54]
colon shortening (Swiss Webster mice; 0.1, 0.3 or 1 mg/kg/day, compared to animals treated with vehicle): protected against colon shortening | levels of MDA and MPO (Swiss Webster mice; 0.1, 0.3 or 1 mg/kg/day, dose-dependent, compared to animals treated with vehicle): lowered | visual score (1-4) of colon damage (Swiss Webster mice; Dose 0.1 mg/ml): 1.5 | Colon Length (Swiss Webster mice; Dose 0.1 mg/ml): 4.95 cm | visual score (1-4) of colon damage (Swiss Webster mice; Dose 0.3 mg/ml): 1.2 | Colon Length (Swiss Webster mice; Dose 0.3 mg/ml): 5.51 cm | visual score (1-4) of colon damage (Swiss Webster mice; Dose 1 mg/ml): 1.4 | Colon Length (Swiss Webster mice; Dose 1 mg/ml): 5.87 cm | MDA (Swiss Webster mice; Dose 0.1 mg/ml): 7.4 nmol/mg protein | MPO (Swiss Webster mice; Dose 0.1 mg/ml): 345 mμ/mg protein | MDA (Swiss Webster mice; Dose 0.3 mg/ml): 7.4 nmol/mg protein | MPO (Swiss Webster mice; Dose 0.3 mg/ml): 138 mμ/mg protein | MDA (Swiss Webster mice; Dose 1 mg/ml): 4.4 nmol/mg protein | MPO (Swiss Webster mice; Dose 1 mg/ml): 30 mμ/mg protein | Serum MIP-1α mean (BALB/c mice [1]; 0.3 mg/kg i.p. before LPS 1 mg/kg i.p., LPS alone 4150): 4298 pg/mL | Serum TNF-α mean (BALB/c mice [1]; 0.3 mg/kg i.p. before LPS 1 mg/kg i.p., LPS alone 9741): 5733 pg/mL | LPS-induced increase in TNF-α and MIP-1α (BALB/c mice [1]; 0.3 mg/kg or 1.0 mg/kg i.p.): dose-dependently reduces | Serum MIP-1α mean (BALB/c mice [1]; 1.0 mg/kg i.p. before LPS 1 mg/kg i.p., LPS alone 4150): 3906 pg/mL | Serum TNF-α mean (BALB/c mice [1]; 1.0 mg/kg i.p. before LPS 1 mg/kg i.p., LPS alone 9741): 3727 pg/mL
